Laboratory results as given in paper doi:10.1101/2025.07.24.666388, “Small Molecule Activators of Protein Phosphatase 2A Exert Global Stabilising Effects on the Scaffold PR65” (bioRxiv, 2025).

Biological target: T1, PR65 (PP2A scaffold subunit A) (Homo sapiens, UniProt P30153)
T1 construct: gene PPP2R1A; WT PR65, 15 HEAT repeats (GST tag cleaved); ybbR-tagged PR65 for optical tweezers
Assay: fluorescence polarisation (PR65 titrated into fluorescent ATUX-8385); also nanoDSF shift and optical tweezers
Format: binding

T1 sequence (P30153 2-589): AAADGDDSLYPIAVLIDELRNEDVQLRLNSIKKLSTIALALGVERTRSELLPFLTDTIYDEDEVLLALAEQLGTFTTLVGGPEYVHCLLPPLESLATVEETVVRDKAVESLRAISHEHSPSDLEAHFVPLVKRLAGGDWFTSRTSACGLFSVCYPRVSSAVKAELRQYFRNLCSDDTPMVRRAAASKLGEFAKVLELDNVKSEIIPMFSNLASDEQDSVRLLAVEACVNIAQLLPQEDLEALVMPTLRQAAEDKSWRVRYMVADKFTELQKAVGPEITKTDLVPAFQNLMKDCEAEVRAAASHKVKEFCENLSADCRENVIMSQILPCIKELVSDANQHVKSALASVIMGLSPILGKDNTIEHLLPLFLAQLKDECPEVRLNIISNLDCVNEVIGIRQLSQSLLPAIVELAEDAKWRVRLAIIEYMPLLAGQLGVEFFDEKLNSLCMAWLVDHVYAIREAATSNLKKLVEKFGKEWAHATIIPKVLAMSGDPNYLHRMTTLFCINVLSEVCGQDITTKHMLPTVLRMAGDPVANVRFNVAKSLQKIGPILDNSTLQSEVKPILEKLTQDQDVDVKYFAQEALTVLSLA

`O=S(=O)(NC1CNCC(n2c3ccc(F)cc3c3cc(F)ccc32)C1O)c1ccc(OC(F)(F)F)cc1` (stereo not shown) [ATUX-8385] gave a Kd of 4.7 ± 1.1 µM.
